{"source": "patent US12642780B2", "about": "“Methods and compositions to treat and prevent viral infections and acute respiratory distress syndrome” (priority 2020, dated 2026)", "key": {"[1]": {"experiment": "LC-MS/MS metformin concentration in plasma", "conditions": "24 hrs after LPS challenge, oral and i.p.", "method": "(§1) Pooled mice plasma (CD-1 (ICR) MSE00PLK2, BioIVT) was selected as blank matrix for standards and quality control samples. Sample preparation procedure was adopted from literatures with minor modifications. […] The samples mix were vortexed for 2 minutes then sonicated for 1 min and centrifuged at 6100 g for 10 min. Supernatants were transferred into a new set 96-well plate, and 10 μL were injected for LC-MS/MS analysis. […] The solution was then serially diluted with 50% methanol-water to obtain standard working solutions over a concentration range of 10-2000 ng/ml. The quality control (QC) samples were prepared in three concentrations: 10, 100, and 500 ng/ml.\n(§2) LC-MS/MS system was performed using an Agilent 1290 Infinity HPLC and HiP ALS (Autosampler) coupled with AB Sciex 6500 Q-Trap mass spectrometer. All data were acquired using Analyst (AB SCIEX v1.7.1). […] The mobile phase A was 20 mM ammonium acetate buffer in water and 100% acetonitrile as mobile phase B. A total 7 min gradient run with a flow rate of 0.8 ml/min was implemented. […] The mass spectrometer was operated in a positive mode using scheduled multiple reaction morning (sMRM)."}, "NLRP3 inflammasome [2]": {"test_system": "NLRP3 inflammasome", "experiment": "NLRP3 inflammasome activation in human macrophages", "assay_type": "cell-based", "conditions": "LPS 20 ng/ml 3 hrs, ATP 2 mM 30 min, metformin 0.5 mM 16 hrs"}, "BMDM [3]": {"test_system": "BMDM", "experiment": "Mitochondrial function in BMDM (TMRM, MitoSOX, cellular ATP)", "assay_type": "cell-based, mouse"}, "Il6 and Il1b promoters": {"test_system": "Il6 and Il1b promoters", "experiment": "ChIP-qPCR of transcription factor recruitment to Il6 and Il1b promoters in BMDM", "assay_type": "cell-based, mouse", "conditions": "LPS", "method": "Cells were fixed using 0.75% formaldehyde for 10 min followed by 0.125 M glycine to stop the crosslinking reaction. […] Nuclei were pelleted at 1,000 g in a cold microfuge and resuspended in B buffer (50 mM Tris, pH 8.0, 5 mM EDTA and 1% SDS plus inhibitors). […] Nuclear extracts were immunoprecipitated with respective antibodies. The co-immunoprecipitated material was then subjected to qPCR analysis using specific primers."}, "NLRP3 inflammasome [4]": {"test_system": "NLRP3 inflammasome", "experiment": "NLRP3 inflammasome activation in LPS-primed BMDM", "assay_type": "cell-based, mouse"}, "[5]": {"test_system": "SARS-CoV-2 USA-WA1/2020 strain", "experiment": "SARS-CoV-2 infection in hACE2 mice", "assay_type": "in vivo, mouse"}, "mtDNA": {"test_system": "mtDNA", "experiment": "mtDNA synthesis and cytosolic Ox-mtDNA in BMDM", "assay_type": "cell-based, mouse", "description": "To image mtDNA synthesis, BMDM were stimulated with LPS ([…]) for 4 hrs in the presence of 10 μM EdU. Cells were then washed twice with sterile PBS and fixed in 4% PFA for 15 min followed by permeabilization with 0.02% Triton X-100 for 10 min. EdU staining was performed using a Click-iT EdU Microplate Assay Kit (Thermo Fisher Scientific). In brief, BMDMs were postfixed in EdU fixative for 5 min, and equal volumes of the EdU reaction cocktail, which was prepared immediately before use, were added to each chamber and left overnight. Primary antibody against the mitochondrial marker Atp5b was included in the EdU reaction cocktail. The next day, the BMDM were washed three times with PBS followed by incubation with secondary Alexa antibodies from Life Technologies or Jackson Immuno Research Laboratories. DAPI was used for nuclear counterstaining.\nTotal DNA was isolated using Allprep DNA/RNA Mini Kit (catalogue 80204, Qiagen) according to manufacturer's instructions. mtDNA was quantified by qPCR using primers specific for the mitochondrial D-loop region, cytochrome c oxidase (COX) or a specific region of mtDNA that is not inserted into nuclear DNA (non-NUMT) (Zhong et al., 2018). Nuclear DNA encoding Teri, 18S ribosomal RNA and B2m was used for normalization.\nCellular fractionation was performed using Mitochondrial Isolation kit (89874, ThermoScientific) according to manufacturer's instructions. Cytosolic mtDNA was analyzed as described (Nakahira et al., 2011). For the measurement of Ox-mtDNA, mtDNA was first purified using Allprep DNA/RNA mini kit (Qiagen) from the cytosolic fraction of BMDM as described above. The 8-OH-dG content of the mtDNA was then quantified using an 8-OHdG quantification kit (ab201734), per manufacturer's instructions."}, "in vivo": {"experiment": "in vivo", "conditions": "male, C57BL/6, mouse, ip, 50 mg/kg", "method": "as §1, §2"}, "LPS-induced ARDS": {"test_system": "LPS-induced ARDS", "conditions": "for protection from LPS-induced ARDS: last dose 30 min prior to 5 mg/kg LPS", "description": "Briefly, 5 mg/kg LPS or vehicle was i.p. injected and the mice were euthanized 8, 24 or 48 hrs later. […] In all cases, at the experimental endpoint the lungs were inflated with cold PBS, excised and fixed in 10% formalin for histological evaluation.\nPaired antibodies (capture and detection) and standard recombinant mouse IL-1β (R&D Systems), and TNF and IL-6 (eBioscience) were used to determine mouse cytokine concentrations according to manufacturer's instructions.\nLungs were fixed in 10% formalin for 24 hrs and embedded in paraffin, sectioned and stained with hematoxylin and eosin (H&E) to evaluate gross morphology and lung damage and inflammation; and with Sirius red to determine collagen buildup. Ten to twelve H&E stained sections from each animal were scored for the degree of lung inflammation and damage by two blinded mouse lung pathology experts as described (Jupelli et al., 2013), and the scores were averaged. Briefly, the degree of lung inflammation was assigned an arbitrary score of 0 (normal=no inflammation, no airway thickening, no edema), 1 (minimal cellular infiltration, and minimal edema), 2 (mild-moderate cellular infiltration, plus mild airway thickening and mild edema), 3 (severe cellular infiltration, plus diffuse airway thickening and severe edema) in 10-12 fields per mouse.\nLung sections were subjected to incubation with antibodies specific for F4/80 (macrophage marker), myeloperoxidase (MPO, neutrophil marker), c/EBPb, NFATc2 and NFATc3. Stained areas were quantified using ImageJ software.\nNLRP3 inflammasome activation in the lung was detected by immunofluorescence co-staining with F4/80 and ASC antibodies. Briefly, lung sections were hydrated and boiled at 96° C. in citrate buffer 1× for 20 min. Sections were blocked with 2% BSA/PBS1X containing 1% normal horse serum for 1 hr at room temperature. F4/80 and ASC antibodies were incubated in blocking solution overnight at 4° C. After washing, Alexa secondary antibodies were added and the sections were incubated in 2% BSA/PBS1X for 1 hr at room temperature. Sections were washed, incubated with DAPI, and mounted using FluoSave. Sections were imaged through a Leica SP5 confocal microscope. The percentage of F4/80^+ cells with ASC specks were quantified in 18-26 high magnification fields from 4-5 mice per group."}, "BMDM [6]": {"test_system": "BMDM", "conditions": "for recruitment of DRP1 to mitochondria / recruitment of p62 to mitochondria: metformin 0.5 mM"}, "[7]": {"conditions": "LPS-primed BMDM, metformin 0.5 mM 16 h"}, "[8]": {"conditions": "BMDM, metformin 0.5 mM 16 h, LPS 4 h"}, "[9]": {"conditions": "BMDM, LPS 4 hrs, metformin 0.5 mM 16 hrs"}, "[10]": {"conditions": "Cmpk2ΔMye mice, 50 mg/kg metformin"}, "[11]": {"conditions": "therapeutic, 50 mg/kg i.p. after LPS"}}, "note": "Like-named read-outs stand apart in the source and are kept apart here."}
{"smiles": "CN(C)C(=N)NC(=N)N", "note": "[metformin, N,N-dimethylbiguanide]", "values": [{"measurement": "circulating concentrations", "setting": "[1]", "value": "equally low"}, {"measurement": "Casp1 p20 and IL-1β secretion", "setting": "NLRP3 inflammasome [2]", "value": "abrogated"}, {"measurement": "ATP or nigericin induced decrease of mitochondrial membrane potential and increase of mtROS", "setting": "BMDM [3]; [7]", "value": "blunted both responses"}, {"measurement": "drop in ATP concentration", "setting": "BMDM [3]; LPS-primed versus non-stimulated macrophages", "value": "larger drop"}, {"measurement": "mitochondrial membrane potential", "setting": "BMDM [3]; non-stimulated macrophages, metformin alone", "value": "decreased"}, {"measurement": "c/EBPβ and NFATc1-4 recruitment to the Il6 promoter", "setting": "Il6 and Il1b promoters", "value": "inhibited"}, {"measurement": "nigericin- and ATP-induced ASC speck formation", "setting": "NLRP3 inflammasome [4]; BMDM, metformin 0.5 mM 16 h", "value": "inhibited"}, {"measurement": "expression of inflammasome components NLRP3, ASC, pro-Casp1 and NEK7", "setting": "NLRP3 inflammasome [4]; [8]", "value": "no effect"}, {"measurement": "pro-IL 1β protein", "setting": "NLRP3 inflammasome [4]; [8]", "value": "modestly decreased"}, {"measurement": "inhibition of nigericin-induced ASC specks", "setting": "NLRP3 inflammasome [4]; BMDM, nigericin", "value": "incomplete"}, {"measurement": "effect of AMPKα1 ablation on inhibition of Casp1 activation or IL-1β processing and secretion by metformin", "setting": "NLRP3 inflammasome [4]; LPS-primed Ampkα1−/− BMDM stimulated with ATP", "value": "no effect"}, {"measurement": "LDH release", "setting": "NLRP3 inflammasome [4]; LPS-primed BMDM with NLRP3 agonists, metformin 0.5 mM 16 hrs", "value": "reduced"}, {"measurement": "gasdermin D (GSDMD) cleavage", "setting": "NLRP3 inflammasome [4]; [7]", "value": "inhibited"}, {"measurement": "Casp1 activation and pro-IL-1β processing to mature IL-1β", "setting": "NLRP3 inflammasome [4]; LPS-primed macrophages with ATP, nigericin, alum or MSU, metformin 0.5 mM 16 h", "value": "inhibited"}, {"measurement": "IL-1β and Casp1 p20 release", "setting": "NLRP3 inflammasome [4]; Ndufs4-deficient BMDM, LPS + ATP, metformin 0.5 mM 16 hrs", "value": "did not further reduce"}, {"measurement": "effect on Casp1 activation and pro-IL-1β processing", "setting": "NLRP3 inflammasome [4]; nigericin-challenged macrophages", "value": "relatively modest"}, {"measurement": "Casp1 activation and IL-1β secretion", "setting": "NLRP3 inflammasome [4]; p62- and ATG7-deficient macrophages, LPS + ATP", "value": "still inhibited"}, {"measurement": "infection-associated loss of body weight", "setting": "[5]; day 2 post-inoculation", "value": "slowed down"}, {"measurement": "immune cell infiltration, alveolar wall thickening and c/EBPβ activation", "setting": "[5]; hACE2 Tg mice, 50 mg/kg i.p. from 2 days before infection, 6 days post-infection", "value": "reduced"}, {"measurement": "macrophages with ASC specks in lungs", "setting": "[5]; hACE2 Tg mice, 50 mg/kg, day 6 post-infection", "value": "almost none"}, {"measurement": "inhibition of LPS-induced mtDNA synthesis by EdU-labelling", "setting": "mtDNA; [9]", "value": "confirmed"}, {"measurement": "LPS-stimulated mtDNA synthesis", "setting": "mtDNA; [7]", "value": "strongly inhibited"}, {"measurement": "generation of cytoplasmic Ox-mtDNA", "setting": "mtDNA; LPS-primed macrophages challenged with ATP or nigericin, metformin", "value": "blocked generation"}, {"measurement": "effect of AMPKα1 silencing on LPS-stimulated mtDNA synthesis and its inhibition by metformin", "setting": "mtDNA; shPrkaa1 BMDM", "value": "no effect"}, {"measurement": "concentration at 1 hr", "setting": "in vivo", "value": "440 ± 389", "unit": "ng/mL"}, {"measurement": "protection from LPS-induced ARDS", "setting": "LPS-induced ARDS; 10 mg/kg i.p. three consecutive days", "value": "modest protective effect"}, {"measurement": "protection from LPS-induced ARDS", "setting": "LPS-induced ARDS; 50 mg/kg i.p. three consecutive days", "value": "strong protection"}, {"measurement": "IL-1β and IL-6 in BALF", "setting": "LPS-induced ARDS; 50 mg/kg prophylactic", "value": "decreased"}, {"measurement": "TNF in BALF", "setting": "LPS-induced ARDS; 50 mg/kg prophylactic", "value": "no effect"}, {"measurement": "collagen buildup", "setting": "LPS-induced ARDS; 50 mg/kg prophylactic", "value": "abrogated"}, {"measurement": "infiltration of inflammatory cells into bronchioles, vascular bed and lung parenchyma", "setting": "LPS-induced ARDS; 50 mg/kg prophylactic", "value": "inhibited"}, {"measurement": "macrophage and neutrophil infiltration", "setting": "LPS-induced ARDS; 50 mg/kg prophylactic, F4/80 and MPO staining", "value": "strongly inhibited"}, {"measurement": "septa thickening", "setting": "LPS-induced ARDS; 50 mg/kg prophylactic, lung histology", "value": "prevented"}, {"measurement": "c/EBPβ activation and IL-6 secretion to BALF", "setting": "LPS-induced ARDS; [10]", "value": "did inhibit"}, {"measurement": "lung pathology or IL-1β secretion", "setting": "LPS-induced ARDS; [10]", "value": "did not result in noticeable improvement"}, {"measurement": "preventive efficacy of oral metformin", "setting": "LPS-induced ARDS; drinking water 400 mg/kg starting 48 hrs prior to LPS", "value": "as protective as injected metformin"}, {"measurement": "ASC speck formation in lung", "setting": "LPS-induced ARDS; prophylactic metformin", "value": "limited"}, {"measurement": "c/EBPβ and NFAT activation in lung", "setting": "LPS-induced ARDS; prophylactic metformin", "value": "limited"}, {"measurement": "IL-1β in BALF", "setting": "LPS-induced ARDS; [11]", "value": "decreased"}, {"measurement": "macrophage and neutrophil infiltration", "setting": "LPS-induced ARDS; [11]", "value": "inhibited"}, {"measurement": "expression of CMPK2", "setting": "BMDM [6]; [9]", "value": "no effect"}, {"measurement": "POLγ expression", "setting": "BMDM [6]; BMDM, metformin", "value": "no effect"}, {"measurement": "AMPK phosphorylation", "setting": "BMDM [6]; BMDM, metformin 0.5 mM 16 h", "value": "increased"}, {"measurement": "p38 or JNK MAP kinase activation", "setting": "BMDM [6]; BMDM, metformin 0.5 mM 16 hrs, LPS 30 min", "value": "blunted"}, {"measurement": "nuclear translocation of NFAT family members and c/EBPb", "setting": "BMDM [6]; BMDM, metformin 0.5 mM 16 hrs, LPS 4 hrs", "value": "decreased"}, {"measurement": "LPS-induced p65/RelA nuclear translocation or phosphorylation", "setting": "BMDM [6]; BMDM, metformin 0.5 mM overnight, LPS", "value": "did not interfere"}, {"measurement": "STAT1 or STAT3 phosphorylation", "setting": "BMDM [6]; BMDM, metformin pretreatment, LPS", "value": "did not inhibit"}, {"measurement": "recruitment of DRP1 to mitochondria", "setting": "BMDM [6]; LPS primed cells", "value": "enhancing it"}, {"measurement": "recruitment of DRP1 to mitochondria", "setting": "BMDM [6]; LPS+ATP challenged macrophages", "value": "not affecting it"}, {"measurement": "recruitment of p62 to mitochondria", "setting": "BMDM [6]; LPS-primed cells not ATP exposed", "value": "enhanced"}, {"measurement": "recruitment of p62 to mitochondria", "setting": "BMDM [6]; after LPS+ATP stimulation", "value": "did not affect"}]}
